“Also recorded” adds a separate entry of the source.
How the values were obtained:
[1] = test system: TGF-β; experiment: TGF-β antagonist activity of C44S/C48S variants (test not specified); conditions: C44S/C48S versions versus parent peptides
From the text: In another embodiment of the invention variants of peptantagonists β3^25 (41-65) (SEQ ID NO: 4), β2^25 (41-65) (SEQ ID NO: 5), and β3^25 (41-65) (SEQ ID NO: 6), are provided in which cysteine-44 and cysteine-48 were replaced by serine residues.

[2] = Stability in solution / in IntraSite gel during storage; conditions: C44S/C48S versions versus parent peptides
Description: One milliliter of sterile 3 mM each of TGF-β peptantagonist 6-E-β1^25 (SEQ ID NO: 7), in phosphate-buffered saline (PBS) or 1 ml of sterile PBS (vehicle) was vigorously mixed with 3 ml of IntraSite gel using two 10 ml syringes connected with a three-way connector.

[3] = test system: TGF-β receptors in mink lung epithelial cells; conditions: earlier finding of the inventors (U.S. Pat. No. 6,500,920); cited from earlier work
[4] = test system: mink lung epithelial cells; conditions: mink lung epithelial cells and other cell types; U.S. Pat. No. 6,500,920; cited from earlier work
[5] = test system: PAI-1; conditions: mink lung epithelial cells and other cell types; U.S. Pat. No. 6,500,920; cited from earlier work
[6] = test system: full-thickness burn wounds on pig skin; experiment: Hair growth in full-thickness pig skin burn wound model; format: in vivo, pig (Yorkshire strain); conditions: for hair growth, % of the original pre-burn area: topical, full-thickness burn, postburn day 30
From the text: TGF-β peptantagonists with amino acid sequences corresponding to residues 41-65 of TGF-β1 (SEQ ID NO: 8) and TGF-β2 (SEQ ID NO: 9), and TGF-β peptantagonist 6-β1^25 (SEQ ID NO: 7), which have additional 6 glutamate residues at the N-termini were synthesized and purified as described previously. Sterile IntraSite gel was obtained from Smith and Nephew Medical, Ltd. (UK) and mixed with TGF-β peptantagonists in phosphate-buffered saline at a ratio of 3:1 (v/v).
Female pigs (Yorkshire strain, house inbred and specific pathogen-free) weighing 20-25 kg were used in the experiments. The pigs were housed in individual rooms. They were fed standard laboratory chow and water ad libitum. All study protocols were reviewed and approved by the respective institutional animal care committees.
Four pigs weighing 20-25 kg were anesthetized by intramuscular injection of ketamine (5 mg/kg), strenil (cazaporonum) (20 mg/kg), and atropine ([…]). Six uniform burn wounds (110° C., 30 s) were then made symmetrically on the back of each pig using a modified soldering iron with a flat contact area of 20 cm^2. […] After wounding, IntraSite gels containing 6-E-β1^25 and buffer vehicle (as control) were applied to the pig burn wounds. All wounds were dressed with paraffin gauze. TGF-β peptantagonist gel or control gel was applied to the wounds every 2 days for the first 10 days and twice a week for the next 30 days. All wounds were cleaned and measured before each application of the IntraSite gel.
Hair growth was assessed by measuring hair number and hair length in the burn lesion and around the lesion area. Hair growth was monitored every 2 days for the first 10 days and twice a week for 30 more days. Hair growth expressed as a percent of the original wound size was calculated.
The pig model is commonly used in skin injury (e.g., burn) experiments because porcine skin is anatomically very similar to human skin. It was used to determine the ability of 6-E-β1^25 peptantagonist to rescue or restore hair follicles and to promote hair growth in a standardized burn injury. Four pigs weighing 20-25 kg were anesthetized by intramuscular injection of ketamine (5 mg/kg). A soldering iron with a flat contact area of ˜20 cm^2 was used to generate full-thickness burn wounds (110° C., 30 s) at standard sites on the skin of the back. Six thermal burns (three on each side) were created on each pig. After wounding, two lesions were treated with a thin layer of IntraSite gel containing 6-E-β1^25 (SEQ ID NO: 7) (0.15 and 0.6 mM); two received gel alone and two received no topical applications. All wounds were then bandaged and protected from potential contact irritation with a fixed frame. 6-E-β1^25 (SEQ ID NO: 7) and vehicle gels were applied every 2 days for the first 10 days and twice a week for the next 30 days, at which time hair growth was measured and photographed. Each animal served as its own control. […] At 0.15 and 0.6 mM, 6-E-β1^25 (SEQ ID NO: 7) promoted hair growth of 5-10 and 30-40% of the original pre-burn area, respectively.

| Substance | TGF-β antagonist activity compared with the cysteine-containing peptantagonists [1] | inhibition of binding of radiolabeled TGF-β1, TGF-β2 and TGF-β3 to TGF-β receptors [3] | block of TGF-β-induced growth inhibition [4] | block of TGF-β-induced expression of PAI-1 [5] | also measured |
| --- | --- | --- | --- | --- | --- |
| β2^25 C44S/C48S: variant of β2^25 (41-65) in which cysteine-44 and cysteine-48 were replaced by serine residues (ANFSAGASPYLWSSDTQHSRVLSLY; listed as Homo Sapiens) | the same TGF-β antagonist activity |  |  |  | stability in solution during storage [2]: better stability in solution during storage |
| β3^25 C44S/C48S: variant of β3^25 (41-65) in which cysteine-44 and cysteine-48 were replaced by serine residues (ANFSSGPSPYLRSADTTHSTVLGLY; listed as Homo Sapiens) | the same TGF-β antagonist activity |  |  |  | stability in solution during storage [2]: better stability in solution during storage |
| β2^25 (41-65): chemically synthesized peptide corresponding to the 41st to 65th amino acid residues of TGF-β2 (ANFCAGACPYLWSSDTQHSRVLSLY; listed as Homo Sapiens) |  | inhibit | block | block |  |
| 6-E-β1^25: β1^25 C44S/C48S derivitized with 6 glutamate at the N-terminus (EEEEEEANFSLGPSPYIWSLDTQYSKVLALY; six N-terminal glutamates; listed as Homo Sapiens) |  |  |  |  | hair growth, % of the original pre-burn area ([6]; 0.15 mM in IntraSite gel): 5-10%; hair growth, % of the original pre-burn area ([6]; 0.6 mM in IntraSite gel): 30-40%; promotion of hair growth (effective concentrations, dose dependence) ([6]; 0.15 and 0.6 mM in IntraSite gel): effective in promoting hair growth; also recorded: promote hair growth in a dose-dependent manner; hair growth in the area surrounding the burn wound ([6]; 0.15 and 0.6 mM, topical gel): promoted hair growth in the area surrounding the burn wound; re-epithelialization and hair growth of treated wounds ([6]; postburn day 30, topical gel): exhibited re-epithelialization and hair growth |
| NH2-ANFSLGPSPYIWSLDTQYSKVLALY-COOH (H-ANFSLGPSPYIWSLDTQYSKVLALY-OH; listed as Homo Sapiens) [β1^25 C44S/C48S, variant of β1^25 (41-65) in which cysteine-44 and cysteine-48 were replaced by serine residues] | the same TGF-β antagonist activity |  |  |  |  |
| β1^25 (41-65): chemically synthesized peptide corresponding to the 41st to 65th amino acid residues of TGF-β1 |  | inhibit | block | block |  |
| β3^25 (41-65): chemically synthesized peptide corresponding to the 41st to 65th amino acid residues of TGF-β3 (ANFCSGPCPYLRSADTTHSTVLGLY; listed as Homo Sapiens) |  | inhibit | block | block |  |
